Results reported in ChEMBL document CHEMBL1136454, “Synthesis and biological activity of N-Acylated ornithine analogues of daptomycin” (Bioorg Med Chem Lett, 2003).
Values after ≈ are worked out from the molar mass of the structure shown.

How the values were obtained:
[1] = In vivo Tmax was determined in murine septicemia at dose of 50 mg/kg; type: ADME, organism-based; set-up: dose 50 mg/kg; settings: mouse
[2] = In vivo area under curve (AUC) was determined in murine septicemia at dose of 50 mg/kg; type: ADME, organism-based; set-up: dose 50 mg/kg; settings: mouse
[3] = In vivo volume distribution (Vd) was determined in murine septicemia at dose of 50 mg/kg; type: ADME, organism-based; set-up: dose 50 mg/kg; settings: mouse
[4] = In vivo half life period was determined in murine septicemia at dose of 50 mg/kg; type: ADME, organism-based; set-up: dose 50 mg/kg; settings: mouse
[5] = In vivo Cmax in mice at dose of 50 mg/kg; type: ADME, organism-based; set-up: dose 50 mg/kg; settings: mouse
[6] = In vivo total clearance was determined in murine septicemia at dose of 50 mg/kg; type: ADME, organism-based; set-up: dose 50 mg/kg; settings: mouse, read-out: CLtotal (converted)
Staphylococcus aureus [7] = test: Antibacterial activity against methicillin resistant Staphylococcus aureus ATCC 43300 (MRSA); type: functional
Enterococcus faecium = test: Antibacterial activity against Enterococcus faecium ATCC 6569; type: functional
Staphylococcus aureus [8] = test: Antibacterial activity against methicillin susceptible Staphylococcus aureus ATCC 29213 (MSSA ); type: functional
Enterococcus faecalis = test: Antibacterial activity against Enterococcus faecalis ATCC 49452; type: functional
Mus musculus = test: Antibacterial activity was determined by protection from death of mice infected by methicillin resistant Staphylococcus aureus (MRSA) upon sc administration of compound after 4 hr of post infection; type: functional; settings: read-out: PD50
[9] = In vivo total clearance was determined in murine septicemia at dose of 100 mg/kg; type: ADME, organism-based; set-up: dose 100 mg/kg; settings: mouse, read-out: CLtotal (converted)
[10] = In vivo area under curve (AUC) was determined in murine septicemia at dose of 100 mg/kg; type: ADME, organism-based; set-up: dose 100 mg/kg; settings: mouse
[11] = In vivo Cmax in mice at dose of 100 mg/kg; type: ADME, organism-based; set-up: dose 100 mg/kg; settings: mouse
[12] = In vivo Tmax was determined in murine septicemia at dose of 100 mg/kg; type: ADME, organism-based; set-up: dose 100 mg/kg; settings: mouse
[13] = In vivo volume distribution (Vd) was determined in murine septicemia at dose of 100 mg/kg; type: ADME, organism-based; set-up: dose 100 mg/kg; settings: mouse

Compound | Tmax [1] | AUC [2] | Vd [3] | half-life [4] | Cmax [5] | clearance [6] | MIC (Staphylococcus aureus [7]) | MIC (Enterococcus faecium) | MIC (Staphylococcus aureus [8]) | MIC (Enterococcus faecalis) | ED50 (Mus musculus) | clearance [9] | AUC [10] | Cmax [11] | Tmax [12] | Vd [13]
CCCCCCCCCC(=O)N[C@@H](Cc1c[nH]c2ccccc12)C(=O)N[C@H](CC(N)=O)C(=O)N[C@@H](CC(=O)O)C(=O)N[C@@H]1C(=O)NCC(=O)N[C@@H](CCCNC(=O)[C@@H](N)CCCCN)C(=O)N[C@@H](CC(=O)O)C(=O)N[C@H](C)C(=O)N[C@@H](CC(=O)O)C(=O)NCC(=O)N[C@H](CO)C(=O)N[C@@H]([C@H](C)CC(=O)O)C(=O)N[C@@H](CC(=O)c2ccccc2N)C(=O)O[C@@H]1C | 0.5 h | 589 µg·h/mL | 0.147 L/kg | 1.2 h | 297 µg/mL | 1.42 mL/min/kg |  |  |  |  |  |  |  |  |  | 
CCCCCCCCCC(=O)N[C@@H](Cc1c[nH]c2ccccc12)C(=O)N[C@H](CC(N)=O)C(=O)N[C@@H](CC(=O)O)C(=O)N[C@@H]1C(=O)NCC(=O)N[C@@H](CCCNC(=O)c2c(N)ccc3ccccc23)C(=O)N[C@@H](CC(=O)O)C(=O)N[C@H](C)C(=O)N[C@@H](CC(=O)O)C(=O)NCC(=O)N[C@H](CO)C(=O)N[C@@H]([C@H](C)CC(=O)O)C(=O)N[C@@H](CC(=O)c2ccccc2N)C(=O)O[C@@H]1C [listing 1 of 2 here] | 4 h | 2820 µg·h/mL | 0.143 L/kg | 5.6 h | 230 µg/mL | 0.3 mL/min/kg |  |  |  |  |  |  |  |  |  | 
CCCCCCCCCC(=O)N[C@@H](Cc1c[nH]c2ccccc12)C(=O)N[C@H](CC(N)=O)C(=O)N[C@@H](CC(=O)O)C(=O)N[C@@H]1C(=O)NCC(=O)N[C@@H](CCCNC(=O)c2c(N)ccc3ccccc23)C(=O)N[C@@H](CC(=O)O)C(=O)N[C@H](C)C(=O)N[C@@H](CC(=O)O)C(=O)NCC(=O)N[C@H](CO)C(=O)N[C@@H]([C@H](C)CC(=O)O)C(=O)N[C@@H](CC(=O)c2ccccc2N)C(=O)O[C@@H]1C [listing 2 of 2 here] |  |  |  |  |  |  | 0.78 µg/mL (≈ 0.436 µM) | 6.25 µg/mL (≈ 3.49 µM) | 0.78 µg/mL (≈ 0.436 µM) | 6.25 µg/mL (≈ 3.49 µM) | 2.1 mg/kg |  |  |  |  | 
CCCCCCCCCC(=O)N[C@@H](Cc1c[nH]c2ccccc12)C(=O)N[C@H](CC(N)=O)C(=O)N[C@@H](CC(=O)O)C(=O)N[C@@H]1C(=O)NCC(=O)N[C@@H](CCCNC(=N)N)C(=O)N[C@@H](CC(=O)O)C(=O)N[C@H](C)C(=O)N[C@@H](CC(=O)O)C(=O)NCC(=O)N[C@H](CO)C(=O)N[C@@H]([C@H](C)CC(=O)O)C(=O)N[C@@H](CC(=O)c2ccccc2N)C(=O)O[C@@H]1C [listing 1 of 2 here] | 0.5 h | 766 µg·h/mL | 0.198 L/kg | 2.1 h | 254 µg/mL | 1.08 mL/min/kg |  |  |  |  |  |  |  |  |  | 
CCCCCCCCCC(=O)N[C@@H](Cc1c[nH]c2ccccc12)C(=O)N[C@H](CC(N)=O)C(=O)N[C@@H](CC(=O)O)C(=O)N[C@@H]1C(=O)NCC(=O)N[C@@H](CCCNC(=N)N)C(=O)N[C@@H](CC(=O)O)C(=O)N[C@H](C)C(=O)N[C@@H](CC(=O)O)C(=O)NCC(=O)N[C@H](CO)C(=O)N[C@@H]([C@H](C)CC(=O)O)C(=O)N[C@@H](CC(=O)c2ccccc2N)C(=O)O[C@@H]1C [listing 2 of 2 here] |  |  |  |  |  |  | 0.78 µg/mL (≈ 0.469 µM) | 6.25 µg/mL (≈ 3.76 µM) | 0.78 µg/mL (≈ 0.469 µM) | 12.5 µg/mL (≈ 7.52 µM) | 0.17 mg/kg |  |  |  |  | 
CCCCCCCCCC(=O)N[C@@H](Cc1c[nH]c2ccccc12)C(=O)N[C@H](CC(N)=O)C(=O)N[C@@H](CC(=O)O)C(=O)N[C@@H]1C(=O)NCC(=O)N[C@@H](CCCNC(=O)C2Cc3c([nH]c4ccccc34)CN2)C(=O)N[C@@H](CC(=O)O)C(=O)N[C@H](C)C(=O)N[C@@H](CC(=O)O)C(=O)NCC(=O)N[C@H](CO)C(=O)N[C@@H]([C@H](C)CC(=O)O)C(=O)N[C@@H](CC(=O)c2ccccc2N)C(=O)O[C@@H]1C (some centres undefined) [listing 1 of 2 here] | 6 h |  |  | > 6 h | 418 µg/mL |  |  |  |  |  |  |  |  |  |  | 
CCCCCCCCCC(=O)N[C@@H](Cc1c[nH]c2ccccc12)C(=O)N[C@H](CC(N)=O)C(=O)N[C@@H](CC(=O)O)C(=O)N[C@@H]1C(=O)NCC(=O)N[C@@H](CCCNC(=O)C2Cc3c([nH]c4ccccc34)CN2)C(=O)N[C@@H](CC(=O)O)C(=O)N[C@H](C)C(=O)N[C@@H](CC(=O)O)C(=O)NCC(=O)N[C@H](CO)C(=O)N[C@@H]([C@H](C)CC(=O)O)C(=O)N[C@@H](CC(=O)c2ccccc2N)C(=O)O[C@@H]1C (some centres undefined) [listing 2 of 2 here] |  |  |  |  |  |  | 0.78 µg/mL (≈ 0.429 µM) | 3.1 µg/mL (≈ 1.7 µM) | 0.78 µg/mL (≈ 0.429 µM) | 12.5 µg/mL (≈ 6.87 µM) | 1.75 mg/kg |  |  |  |  | 
CCCCCCCCCC(=O)N[C@@H](Cc1c[nH]c2ccccc12)C(=O)N[C@H](CC(N)=O)C(=O)N[C@@H](CC(=O)O)C(=O)N[C@@H]1C(=O)NCC(=O)N[C@@H](CCCNC(=O)c2ccccc2N)C(=O)N[C@@H](CC(=O)O)C(=O)N[C@H](C)C(=O)N[C@@H](CC(=O)O)C(=O)NCC(=O)N[C@H](CO)C(=O)N[C@@H]([C@H](C)CC(=O)O)C(=O)N[C@@H](CC(=O)c2ccccc2N)C(=O)O[C@@H]1C [listing 1 of 2 here] |  |  |  | 2.4 h |  |  |  |  |  |  |  | 1.1 mL/min/kg | 1500 µg·h/mL | 464 µg/mL | 0.5 h | 0.23 L/kg
CCCCCCCCCC(=O)N[C@@H](Cc1c[nH]c2ccccc12)C(=O)N[C@H](CC(N)=O)C(=O)N[C@@H](CC(=O)O)C(=O)N[C@@H]1C(=O)NCC(=O)N[C@@H](CCCNC(=O)c2ccccc2N)C(=O)N[C@@H](CC(=O)O)C(=O)N[C@H](C)C(=O)N[C@@H](CC(=O)O)C(=O)NCC(=O)N[C@H](CO)C(=O)N[C@@H]([C@H](C)CC(=O)O)C(=O)N[C@@H](CC(=O)c2ccccc2N)C(=O)O[C@@H]1C [listing 2 of 2 here] |  |  |  |  |  |  | 1.56 µg/mL (≈ 0.897 µM) | 6.25 µg/mL (≈ 3.59 µM) | 0.78 µg/mL (≈ 0.448 µM) | 12.5 µg/mL (≈ 7.18 µM) | 1.1 mg/kg |  |  |  |  | 
CCCCCCCCCC(=O)N[C@@H](Cc1c[nH]c2ccccc12)C(=O)N[C@H](CC(N)=O)C(=O)N[C@@H](CC(=O)O)C(=O)N[C@@H]1C(=O)NCC(=O)N[C@@H](CCCNC(=O)C(N)CCc2c[nH]c3ccccc23)C(=O)N[C@@H](CC(=O)O)C(=O)N[C@H](C)C(=O)N[C@@H](CC(=O)O)C(=O)NCC(=O)N[C@H](CO)C(=O)N[C@@H]([C@H](C)CC(=O)O)C(=O)N[C@@H](CC(=O)c2ccccc2N)C(=O)O[C@@H]1C (some centres undefined) [listing 1 of 2 here] | 1 h | 936 µg·h/mL | 0.216 L/kg | 2.8 h | 258 µg/mL | 0.883 mL/min/kg |  |  |  |  |  |  |  |  |  | 
CCCCCCCCCC(=O)N[C@@H](Cc1c[nH]c2ccccc12)C(=O)N[C@H](CC(N)=O)C(=O)N[C@@H](CC(=O)O)C(=O)N[C@@H]1C(=O)NCC(=O)N[C@@H](CCCNC(=O)C(N)CCc2c[nH]c3ccccc23)C(=O)N[C@@H](CC(=O)O)C(=O)N[C@H](C)C(=O)N[C@@H](CC(=O)O)C(=O)NCC(=O)N[C@H](CO)C(=O)N[C@@H]([C@H](C)CC(=O)O)C(=O)N[C@@H](CC(=O)c2ccccc2N)C(=O)O[C@@H]1C (some centres undefined) [listing 2 of 2 here] |  |  |  |  |  |  | 0.78 µg/mL (≈ 0.428 µM) | 1.56 µg/mL (≈ 0.857 µM) | 0.78 µg/mL (≈ 0.428 µM) | 3.1 µg/mL (≈ 1.7 µM) | 0.15 mg/kg |  |  |  |  | 
CCCCCCCCCC(=O)N[C@@H](Cc1c[nH]c2ccccc12)C(=O)N[C@H](CC(N)=O)C(=O)N[C@@H](CC(=O)O)C(=O)N[C@@H]1C(=O)NCC(=O)N[C@@H](CCCN)C(=O)N[C@@H](CC(=O)O)C(=O)N[C@H](C)C(=O)N[C@@H](CC(=O)O)C(=O)NCC(=O)N[C@H](CO)C(=O)N[C@@H]([C@H](C)CC(=O)O)C(=O)N[C@@H](CC(=O)c2ccccc2N)C(=O)O[C@@H]1C | 0.5 h | 489 µg·h/mL | 0.251 L/kg | 1.7 h | 214 µg/mL | 1.7 mL/min/kg | 0.39 µg/mL (≈ 0.241 µM) | 1.56 µg/mL (≈ 0.963 µM) | 0.78 µg/mL (≈ 0.481 µM) | 1.56 µg/mL (≈ 0.963 µM) | 0.22 mg/kg |  |  |  |  | 
